The record followed here is patent US8299085B2, “Quinazoline derivatives” (Novartis AG, priority 2004, dated 2012).

Regarding `CS(=O)(=O)Nn1c(=O)[nH]c2cc([N+](=O)[O-])c(-n3cnc(CO)c3)cc2c1=O` [Example 2, N-[6-(4-Hydroxymethyl-imidazol-1-yl)-7-nitro-2,4-dioxo-1,4-dihydro-2H-quinazolin-3-yl]-methanesulfonamide], the melting point was more than 300 °C.
On to `CS(=O)(=O)Nn1c(=O)[nH]c2cc([N+](=O)[O-])c(NCC(O)c3cccs3)cc2c1=O` (stereo not drawn) [Example 6, N-[6-(2-Hydroxy-2-thiophen-2-yl-ethylamino)-7-nitro-2,4-dioxo-1,4-dihydro-2H-quinazolin-3-yl]-methanesulfonamide], for which the melting point is 110 °C (dec.).
With `COc1cc2c(=O)n(NS(C)(=O)=O)c(=O)[nH]c2cc1[N+](=O)[O-]` [Example 15, N-(6-Methoxy-7-nitro-2,4-dioxo-1,4-dihydro-2H-quinazolin-3-yl)-methanesulfonamide], the melting point was more than 280 °C.
Molecule `CCS(=O)(=O)Nn1c(=O)[nH]c2cc(C(F)(F)F)c(-n3cnnc3)cc2c1=O` [Example 70, Ethanesulfonic acid (2,4-dioxo-6-[1,2,4]triazol-4-yl-7-trifluoromethyl-1,4-dihydro-2H-quinazolin-3-yl)-amide] registered a melting point of 185 to 195 °C.
As to `CCOC(=O)c1ncn(-c2cc3c(=O)n(NS(C)(=O)=O)c(=O)[nH]c3cc2C(F)(F)F)n1` [Example 71, 1-(3-Methanesulfonylamino-2,4-dioxo-7-trifluoromethyl-1,2,3,4-tetrahydro-quinazolin-6-yl)-1H-[1,2,4]triazole-3-carboxylic acid ethyl ester], the melting point was 267 to 270 °C.
`CNC(=O)c1ncn(-c2cc3c(=O)n(NS(C)(=O)=O)c(=O)[nH]c3cc2C(F)(F)F)n1` [Example 72, 1-(3-Methanesulfonylamino-2,4-dioxo-7-trifluoromethyl-1,2,3,4-tetrahydro-quinazolin-6-yl)-1H-[1,2,4]triazole-3-carboxylic acid methylamide] displayed a melting point of 257 to 260 °C.
As for `CS(=O)(=O)Nn1c(=O)[nH]c2cc(C(F)(F)F)c(-n3ccnc3)cc2c1=O` [Example 73, N-(6-Imidazol-1-yl-2,4-dioxo-7-trifluoromethyl-1,4-dihydro-2H-quinazolin-3-yl)-methanesulfonamide], the melting point was 285 to 301 °C (dec.).
Turning to `CS(=O)(=O)Nn1c(=O)[nH]c2cc(C(F)(F)F)c(N3CCSCC3)cc2c1=O` [Example 74, N-(2,4-Dioxo-6-thiomorpholin-4-yl-7-trifluoromethyl-1,4-dihydro-2H-quinazolin-3-yl)-methanesulfonamide], the melting point was 245 to 260 °C (dec.).
For `CS(=O)(=O)Nn1c(=O)[nH]c2cc(C(F)(F)F)c(N3CCC(F)(F)CC3)cc2c1=O` [Example 76, N-[6-(4,4-Difluoro-piperidin-1-yl)-2,4-dioxo-7-trifluoromethyl-1,4-dihydro-2H-quinazolin-3-yl]-methanesulfonamide] the value was 249 to 261 °C (dec.).
The result for `CS(=O)(=O)Nn1c(=O)[nH]c2cc(C(F)(F)F)c(N3CCC4(CC3)OCCO4)cc2c1=O` [Example 77, N-[6-(1,4-Dioxa-8-aza-spiro[4.5]dec-8-yl)-2,4-dioxo-7-trifluoromethyl-1,4-dihydro-2H-quinazolin-3-yl]-methanesulfonamide] reads 253 to 262 °C; that for `CS(=O)(=O)Nn1c(=O)[nH]c2cc(C(F)(F)F)c(N3CCC(=O)CC3)cc2c1=O` [Example 78, N-[2,4-Dioxo-6-(4-oxo-piperidin-1-yl)-7-trifluoromethyl-1,4-dihydro-2H-quinazolin-3-yl]-methanesulfonamide], 238 to 242 °C.
Molecule `CS(=O)(=O)Nn1c(=O)[nH]c2cc(C(F)(F)F)c(N3CCC3)cc2c1=O` [Example 79, N-(6-Azetidin-1-yl-2,4-dioxo-7-trifluoromethyl-1,4-dihydro-2H-quinazolin-3-yl)-methanesulfonamide] showed a melting point of 266 to 283 °C.

Broadly, the melting point is the temperature of the solid-liquid transition.
